{"source": "patent US12447156B2", "about": "“Treating progressive familial intrahepatic cholestasis (PFIC) with IBAT inhibitors” (ALBIREO AB, priority 2020, dated 2025)", "test_system": "children with PFIC", "experiment": "Pooled analysis of PEDFIC 1 and PEDFIC 2 (up to 48 weeks): efficacy, sleep, responders vs nonresponders", "type": "in vivo, human", "conditions": "for CGIC sleep, moderately or very much better / CaGIC sleep, moderately or very much better / % Days needing help falling asleep, mean change from baseline / % Days needing soothing, mean change from baseline / % Days with scratching associated with bleeding, mean change from baseline / % days sleeping with caregiver, mean change from baseline / Number of awakenings, mean change from baseline: sBA or pruritus response No", "text": "This example describes key outcomes with odevixibat in children with PFIC1 (familial intrahepatic cholestasis 1 [FIC1] deficiency) or PFIC2 ((bile salt export pump [BSEP] deficiency) based on pooled analysis of data from the phase 3 PEDFIC 1 (P1; NCT03566238) and PEDFIC 2 (P2; NCT03659916) studies. This pooled analysis covers up to 48 weeks of odevixibat treatment from P1 and through the planned P2 interim data cut. The following outcomes are described: change in serum bile acids (sBAs), change in pruritus score (measured using the PRUCISION scale; range: 0-4), evaluation of growth and sleep parameters, and safety monitoring. Mean changes in autotaxin (linked to cholestatic pruritus intensity) and plasma 7α-hydroxy-4-cholesten-3-one (p-C4; marker of bile acid synthesis) levels were also summarized.\nPatient sleep was evaluated based on caregiver report using the PRUCISION scale and via the clinician- or caregiver-reported Global Impression of Change (CGIC or CaGIC, respectively) sleep scales. Treatment response was defined as an sBA response (sBAs<65 or <102 μmol/L for patients with PFIC1 and PFIC2, respectively) or a pruritus response (a ≥1-point drop from baseline in pruritus score). Mean decreases in caregiver-reported percentage of days with scratching associated with bleeding, needing help falling asleep, and needing soothing were greater among Rs vs NRs (Table 10). At week 48, clinicians and caregivers reported that ≥88% of Rs had moderately or very much better sleep since starting odevixibat (Table 10).\nUsing pooled data from these studies, changes in parameters of cholestasis, pruritus, and hepatic laboratory markers in patients who responded to odevixibat treatment (Rs) vs treatment nonresponders (NRs). Two responder definitions were examined: 1) sBA response (i.e., sBAs<65 or <102 μmol/L for PFIC1 and PFIC2, respectively) and 2) sBA response or pruritus response (i.e., a ≥1-point drop from baseline in PRUCISION score).", "key": {"[1]": {"conditions": "patients with liver enzyme data at baseline"}, "[2]": {"conditions": "patients with liver enzyme data at week 4"}, "[3]": {"conditions": "patients with liver enzyme data at week 24"}, "[4]": {"conditions": "patients with liver enzyme data at week 48"}, "[5]": {"conditions": "pooled P1+P2, all odevixibat-treated patients"}, "[6]": {"conditions": "pooled P1+P2, baseline to weeks 37-48"}}}
{"smiles": "CCCCC1(CCCC)CN(c2ccccc2)c2cc(SC)c(OCC(=O)N[C@@H](C(=O)N[C@@H](CC)C(=O)O)c3ccc(O)cc3)cc2S(=O)(=O)N1", "note": "[Odevixibat, 1,1-dioxo-3,3-dibutyl-5-phenyl-7-methylthio-8-(N-{(R)-α-[N-((S)-1-carboxypropyl)carbamoyl]-4-hydroxybenzyl}carbamoylmethoxy)-2,3,4,5-tetrahydro-1,2,5-benzothiadiazepine]", "values": [{"measurement": "sBA or pruritus responders, n (responder rate [n/(n + m)] * 100)", "setting": "[1]", "value": "48 (63) n (%)"}, {"measurement": "sBA responders, n (responder rate [n/(n + m)] * 100)", "setting": "[1]", "value": "24 (39) n (%)"}, {"measurement": "sBA or pruritus responders, n (responder rate [n/(n + m)] * 100)", "setting": "[2]", "value": "43 (61) n (%)"}, {"measurement": "sBA responders, n (responder rate [n/(n + m)] * 100)", "setting": "[2]", "value": "23 (39) n (%)"}, {"measurement": "sBA or pruritus responders, n (responder rate [n/(n + m)] * 100)", "setting": "[3]", "value": "31 (62) n (%)"}, {"measurement": "sBA responders, n (responder rate [n/(n + m)] * 100)", "setting": "[3]", "value": "19 (40) n (%)"}, {"measurement": "sBA or pruritus responders, n (responder rate [n/(n + m)] * 100)", "setting": "[4]", "value": "18 (75) n (%)"}, {"measurement": "sBA responders, n (responder rate [n/(n + m)] * 100)", "setting": "[4]", "value": "15 (63) n (%)"}, {"measurement": "mean change from baseline to week 48 in alanine aminotransferase (ALT)", "setting": "[5]", "value": "−82", "unit": "U/L"}, {"measurement": "mean change from baseline to week 48 in total bilirubin", "setting": "[5]", "value": -18, "unit": "µmol/L"}, {"measurement": "mean change in height Z score", "setting": "pooled P1+P2, baseline to week 48", "value": 0.5}, {"measurement": "mean change in observer-reported percentage of days needing help falling asleep", "setting": "[6]", "value": "−52", "unit": "%"}, {"measurement": "mean change in observer-reported percentage of days needing soothing", "setting": "[6]", "value": "−51", "unit": "%"}, {"measurement": "mean change in observer-reported percentage of days seeing blood due to scratching", "setting": "[6]", "value": "−25", "unit": "%"}, {"measurement": "mean change in observer-reported percentage of days sleeping with caregiver", "setting": "[6]", "value": "−40", "unit": "%"}, {"measurement": "patients who met sBA response criteria", "setting": "pooled P1+P2, during the analysis period, regardless of genotype", "value": "≥ 50", "unit": "%"}, {"measurement": "mean change from baseline in sBAs", "setting": "pooled P1+P2, end of the analysis period (up to 48 weeks), n=24", "value": -213, "unit": "µmol/L"}, {"measurement": "mean change in pruritus score", "setting": "pooled P1+P2, end of the analysis period (up to 48 weeks), n=32", "value": "−1.4"}, {"measurement": "mean change in sBAs", "setting": "pooled P1+P2, four weeks after starting odevixibat, n=68, baseline 250", "value": -88, "unit": "µmol/L"}, {"measurement": "mean change in pruritus score", "setting": "pooled P1+P2, over the first 4-week period, n=75, baseline 2.9", "value": "−0.7"}, {"measurement": "mean positive pruritus assessments (PPAs)", "setting": "pooled P1+P2, patients with PFIC1", "value": 48, "unit": "%"}, {"measurement": "mean positive pruritus assessments (PPAs)", "setting": "pooled P1+P2, patients with PFIC2 (including BSEP subtypes 1 and 2)", "value": "above 60%"}, {"measurement": "mean height Z score", "setting": "pooled P1+P2, week 48, n=20, baseline −1.9 (n=75)", "value": "−0.8"}, {"measurement": "mean weight Z score", "setting": "pooled P1+P2, week 48, n=21, baseline −1.1 (n=75)", "value": "−0.0"}, {"measurement": "rate of sBA or pruritus responders", "setting": "pooled P1+P2, weeks 0-24", "value": 57, "unit": "%"}, {"measurement": "rate of sBA responders", "setting": "pooled P1+P2, weeks 0-24", "value": 31, "unit": "%"}, {"measurement": "rate of sBA or pruritus responders", "setting": "pooled P1+P2, weeks 25-36", "value": 60, "unit": "%"}, {"measurement": "rate of sBA responders", "setting": "pooled P1+P2, weeks 25-36", "value": 48, "unit": "%"}, {"measurement": "rate of sBA or pruritus responders", "setting": "pooled P1+P2, weeks 37-48", "value": 65, "unit": "%"}, {"measurement": "rate of sBA responders", "setting": "pooled P1+P2, weeks 37-48", "value": 59, "unit": "%"}, {"measurement": "CGIC sleep, moderately or very much better", "setting": "week 4, n 26", "value": 30.8, "unit": "%"}, {"measurement": "CaGIC sleep, moderately or very much better", "setting": "week 4, n 28", "value": 25.0, "unit": "%"}, {"measurement": "CGIC sleep, moderately or very much better", "setting": "week 24, n 21", "value": 33.3, "unit": "%"}, {"measurement": "CaGIC sleep, moderately or very much better", "setting": "week 24, n 21", "value": 23.8, "unit": "%"}, {"measurement": "CaGIC sleep, moderately or very much better", "setting": "week 48, n 3", "value": 33.3, "unit": "%"}, {"measurement": "CGIC sleep, moderately or very much better", "setting": "week 48, n 4", "value": 25.0, "unit": "%"}, {"measurement": "% Days needing help falling asleep, mean change from baseline", "setting": "weeks 1-4, n 28", "value": "−10.4", "unit": "%"}, {"measurement": "% Days needing soothing, mean change from baseline", "setting": "weeks 1-4, n 28", "value": "−6.0", "unit": "%"}, {"measurement": "% Days with scratching associated with bleeding, mean change from baseline", "setting": "weeks 1-4, n 28", "value": "−6.5", "unit": "%"}, {"measurement": "% days sleeping with caregiver, mean change from baseline", "setting": "weeks 1-4, n 28", "value": "−3.1", "unit": "%"}, {"measurement": "Number of awakenings, mean change from baseline", "setting": "weeks 1-4, n 28", "value": 1.3}, {"measurement": "% Days needing help falling asleep, mean change from baseline", "setting": "weeks 21-24, n 22", "value": "−4.9", "unit": "%"}, {"measurement": "% Days needing soothing, mean change from baseline", "setting": "weeks 21-24, n 22", "value": 7.8, "unit": "%"}, {"measurement": "% Days with scratching associated with bleeding, mean change from baseline", "setting": "weeks 21-24, n 22", "value": 3.2, "unit": "%"}, {"measurement": "% days sleeping with caregiver, mean change from baseline", "setting": "weeks 21-24, n 22", "value": 3.1, "unit": "%"}, {"measurement": "Number of awakenings, mean change from baseline", "setting": "weeks 21-24, n 22", "value": 1.5}, {"measurement": "% Days needing help falling asleep, mean change from baseline", "setting": "weeks 45-48, n 2", "value": "−1.8", "unit": "%"}, {"measurement": "% Days needing soothing, mean change from baseline", "setting": "weeks 45-48, n 2", "value": 4.2, "unit": "%"}, {"measurement": "% Days with scratching associated with bleeding, mean change from baseline", "setting": "weeks 45-48, n 2", "value": 12.5, "unit": "%"}]}
